Results published in patent publication US20220289679A1, “HETEROCYCLIC COMPOUND” (Takeda Pharmaceutical Company Limited, priority 2019, published 2022).

Molecular target: T1, human GCS (glucosylceramide synthase) (Homo sapiens, UniProt Q16739)
T1 construct: made in house; host or cells: Expi293F cells (transient expression; microsome fraction)
T1 sequence (Q16739 1-394): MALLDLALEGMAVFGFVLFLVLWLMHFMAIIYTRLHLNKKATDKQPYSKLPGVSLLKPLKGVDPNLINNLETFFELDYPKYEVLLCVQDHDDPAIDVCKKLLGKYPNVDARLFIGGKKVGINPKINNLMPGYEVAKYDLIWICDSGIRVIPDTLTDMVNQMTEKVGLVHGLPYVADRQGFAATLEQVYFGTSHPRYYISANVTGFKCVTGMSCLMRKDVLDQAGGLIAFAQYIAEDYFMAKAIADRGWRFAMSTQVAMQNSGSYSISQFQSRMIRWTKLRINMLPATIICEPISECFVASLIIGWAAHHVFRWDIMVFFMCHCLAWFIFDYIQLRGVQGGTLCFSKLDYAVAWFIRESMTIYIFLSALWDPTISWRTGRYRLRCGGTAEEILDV
Assay: Glucosylceramide Synthase (GCS) Assay
Format: biochemical
Conditions: test compound 10 μM; microsome fraction of Expi293F cells expressing human GCS; 1.7 μM UDP-glucose, 3 μM C8 ceramide; room temperature 60 min; C8 glucosylceramide by Rapidfire MS/MS; read-out: GCS enzyme inhibitory rate at 10 μM (%)
How it was run: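 Enzyme source was a microsome fraction from Expi293F cells transiently expressing human GCS. Reaction ran 60 min at room temperature in 20 mM Tris pH 7.5 with 1.7 μM UDP-glucose (Km) and 3 μM liposomal C8 ceramide, compound at 10 μM final. C8 glucosylceramide quantified by RapidFire MS/MS; inhibition scaled between enzyme-free and DMSO controls.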

Structure (SMILES)	inhibition at 10 µM [%]
O=C(Nc1ccc(COCC(F)(F)F)nc1)c1cccn(-c2ccc(F)cc2OCC(F)(F)F)c1=O [Example 73, 1-[4-fluoro-2-(2,2,2-trifluoroethoxy)phenyl]-2-oxo-N-{6-[(2,2,2-trifluoroethoxy)methyl]pyridin-3-yl}-1,2-dihydropyridine-3-carboxamide]	99
O=C(Nc1ccc(COCC(F)(F)F)nc1)c1cccn(-c2ccccc2OCC(F)(F)F)c1=O [Example 74, 2-oxo-N-{6-[(2,2,2-trifluoroethoxy)methyl]pyridin-3-yl}-1-[2-(2,2,2-trifluoroethoxy)phenyl]-1,2-dihydropyridine-3-carboxamide]	99
O=C(Nc1ccc(C(O)(C(F)F)C(F)F)cc1)c1cccn(-c2ccccc2OCC(F)(F)F)c1=O [Example 77, 2-oxo-N-[4-(1,1,3,3-tetrafluoro-2-hydroxypropan-2-yl)phenyl]-1-[2-(2,2,2-trifluoroethoxy)phenyl]-1,2-dihydropyridine-3-carboxamide]	100
O=C(Nc1ccc(C(O)(C(F)F)C(F)F)cc1)c1cccn(-c2ccc(F)cc2OCC(F)(F)F)c1=O [Example 78, 1-[4-fluoro-2-(2,2,2-trifluoroethoxy)phenyl]-2-oxo-N-[4-(1,1,3,3-tetrafluoro-2-hydroxypropan-2-yl)phenyl]-1,2-dihydropyridine-3-carboxamide]	100
O=C(Nc1ccc(OCC(F)(F)F)nc1)c1cccn(-c2ccnnc2OCC(F)(F)F)c1=O [Example 79, 2-oxo-1-[3-(2,2,2-trifluoroethoxy)pyridazin-4-yl]-N-[6-(2,2,2-trifluoroethoxy)pyridin-3-yl]-1,2-dihydropyridine-3-carboxamide]	87
N#CCc1ccc(NC(=O)c2cccn(-c3ccc(F)cc3OCC(F)(F)F)c2=O)cn1 [Example 80, N-[6-(cyanomethyl)pyridin-3-yl]-1-[4-fluoro-2-(2,2,2-trifluoroethoxy)phenyl]-2-oxo-1,2-dihydropyridine-3-carboxamide]	71
CC(C)(O)c1ccc(NC(=O)c2cccn(-c3ccccc3OCC(F)(F)F)c2=O)cc1F [Example 82, N-[3-fluoro-4-(2-hydroxypropan-2-yl)phenyl]-2-oxo-1-[2-(2,2,2-trifluoroethoxy)phenyl]-1,2-dihydropyridine-3-carboxamide]	99
CC(C)(O)c1ccc(NC(=O)c2cccn(-c3ccc(F)cc3OCC(F)(F)F)c2=O)cc1F [Example 83, N-[3-fluoro-4-(2-hydroxypropan-2-yl)phenyl]-1-[4-fluoro-2-(2,2,2-trifluoroethoxy)phenyl]-2-oxo-1,2-dihydropyridine-3-carboxamide]	98
CC(C)(O)c1ccc(NC(=O)c2cccn(-c3ccccc3OCC(F)(F)F)c2=O)cn1 [Example 84, N-[6-(2-hydroxypropan-2-yl)pyridin-3-yl]-2-oxo-1-[2-(2,2,2-trifluoroethoxy)phenyl]-1,2-dihydropyridine-3-carboxamide]	98
CC(C)(O)c1ccc(NC(=O)c2cccn(-c3ccc(F)cc3OCC(F)(F)F)c2=O)cn1 [Example 85, 1-[4-fluoro-2-(2,2,2-trifluoroethoxy)phenyl]-N-[6-(2-hydroxypropan-2-yl)pyridin-3-yl]-2-oxo-1,2-dihydropyridine-3-carboxamide]	94
N#CCc1ccc(NC(=O)c2cccn(-c3ccccc3OCC(F)(F)F)c2=O)cn1 [Example 86, N-[6-(cyanomethyl)pyridin-3-yl]-2-oxo-1-[2-(2,2,2-trifluoroethoxy)phenyl]-1,2-dihydropyridine-3-carboxamide]	88
CC(C)(C#N)c1ccc(NC(=O)c2cccn(-c3ccc(F)cc3OCC(F)(F)F)c2=O)cn1 [Example 87, N-[6-(2-cyanopropan-2-yl)pyridin-3-yl]-1-[4-fluoro-2-(2,2,2-trifluoroethoxy)phenyl]-2-oxo-1,2-dihydropyridine-3-carboxamide]	99
CC(C)(C#N)c1ccc(NC(=O)c2cccn(-c3ccccc3OCC(F)(F)F)c2=O)cn1 [Example 88, N-[6-(2-cyanopropan-2-yl)pyridin-3-yl]-2-oxo-1-[2-(2,2,2-trifluoroethoxy)phenyl]-1,2-dihydropyridine-3-carboxamide]	100
O=C(Nc1ccc(C(O)(C(F)(F)F)C(F)(F)F)cc1)c1cccn(-c2ccccc2OCC(F)(F)F)c1=O [Example 89, N-[4-(1,1,1,3,3,3-hexafluoro-2-hydroxypropan-2-yl)phenyl]-2-oxo-1-[2-(2,2,2-trifluoroethoxy)phenyl]-1,2-dihydropyridine-3-carboxamide]	100
CC(C)(O)c1ccc(NC(=O)c2cccn(-c3ccnnc3OCC(F)(F)F)c2=O)cc1 [Example 90, N-[4-(2-hydroxypropan-2-yl)phenyl]-2-oxo-1-[3-(2,2,2-trifluoroethoxy)pyridazin-4-yl]-1,2-dihydropyridine-3-carboxamide]	90
COC(C)(C)c1ccc(NC(=O)c2cccn(-c3ccc(F)cc3OCC(F)(F)F)c2=O)cn1 [Example 91, 1-[4-fluoro-2-(2,2,2-trifluoroethoxy)phenyl]-N-[6-(2-methoxypropan-2-yl)pyridin-3-yl]-2-oxo-1,2-dihydropyridine-3-carboxamide]	89
COC(C)(C)c1ccc(NC(=O)c2cccn(-c3ccccc3OCC(F)(F)F)c2=O)cn1 [Example 92, N-[6-(2-methoxypropan-2-yl)pyridin-3-yl]-2-oxo-1-[2-(2,2,2-trifluoroethoxy)phenyl]-1,2-dihydropyridine-3-carboxamide]	95
O=C(Nc1ccc(OCC(F)(F)F)nc1)c1cncn(-c2ccc(F)cc2OCC(F)(F)F)c1=O [Example 93, 1-[4-fluoro-2-(2,2,2-trifluoroethoxy)phenyl]-6-oxo-N-[6-(2,2,2-trifluoroethoxy)pyridin-3-yl]-1,6-dihydropyrimidine-5-carboxamide]	99
CC(C)(O)c1ccc(NC(=O)c2ccnn(-c3ccc(F)cc3OCC(F)(F)F)c2=O)cc1 [Example 95, 2-[4-fluoro-2-(2,2,2-trifluoroethoxy)phenyl]-N-[4-(2-hydroxypropan-2-yl)phenyl]-3-oxo-2,3-dihydropyridazine-4-carboxamide]	99
O=C(Nc1ccc(C2(O)CCC2)cc1)c1cccn(-c2ccccc2OCC(F)(F)F)c1=O [Example 96, N-[4-(1-hydroxycyclobutyl)phenyl]-2-oxo-1-[2-(2,2,2-trifluoroethoxy)phenyl]-1,2-dihydropyridine-3-carboxamide]	100
O=C(Nc1ccc(C2(O)CCC2)cc1)c1cccn(-c2ccc(F)cc2OCC(F)(F)F)c1=O [Example 97, 1-[4-fluoro-2-(2,2,2-trifluoroethoxy)phenyl]-N-[4-(1-hydroxycyclobutyl)phenyl]-2-oxo-1,2-dihydropyridine-3-carboxamide]	99
CC(C)(O)c1ccc(NC(=O)c2cncn(-c3ccc(F)cc3OCC(F)(F)F)c2=O)cc1 [Example 98, 1-[4-fluoro-2-(2,2,2-trifluoroethoxy)phenyl]-N-[4-(2-hydroxypropan-2-yl)phenyl]-6-oxo-1,6-dihydropyrimidine-5-carboxamide]	98
CC(F)(F)COc1ccccc1-n1cccc(C(=O)Nc2ccc(C(C)(C)O)cc2)c1=O [Example 99, 1-[2-(2,2-difluoropropoxy)phenyl]-N-[4-(2-hydroxypropan-2-yl)phenyl]-2-oxo-1,2-dihydropyridine-3-carboxamide]	99
Cc1ccc(C(=O)Nc2ccc(C(C)(C)O)cc2)c(=O)n1-c1ccc(F)cc1OCC(F)(F)F [Example 100, 1-[4-fluoro-2-(2,2,2-trifluoroethoxy)phenyl]-N-[4-(2-hydroxypropan-2-yl)phenyl]-6-methyl-2-oxo-1,2-dihydropyridine-3-carboxamide]	70
O=C(Nc1ccc(OCC(F)(F)F)nc1)c1cccn(-c2ccc(F)cc2OCC(F)F)c1=O [Example 101, 1-[2-(2,2-difluoroethoxy)-4-fluorophenyl]-2-oxo-N-[6-(2,2,2-trifluoroethoxy)pyridin-3-yl]-1,2-dihydropyridine-3-carboxamide]	99
CC(C)(O)c1ccc(NC(=O)c2cccn(-c3ccc(F)cc3OCC(F)F)c2=O)cc1 [Example 102, 1-[2-(2,2-difluoroethoxy)-4-fluorophenyl]-N-[4-(2-hydroxypropan-2-yl)phenyl]-2-oxo-1,2-dihydropyridine-3-carboxamide]	98
O=C(Nc1ccc(C(O)(C(F)(F)F)C(F)(F)F)cc1)c1cccn(-c2ccc(F)cc2OCC(F)(F)F)c1=O [Example 103, 1-[4-fluoro-2-(2,2,2-trifluoroethoxy)phenyl]-N-[4-(1,1,1,3,3,3-hexafluoro-2-hydroxypropan-2-yl)phenyl]-2-oxo-1,2-dihydropyridine-3-carboxamide]	100
N#Cc1cc(F)ccc1-n1cccc(C(=O)Nc2ccc(C(O)(C(F)(F)F)C(F)(F)F)cc2)c1=O [Example 104, 1-(2-cyano-4-fluorophenyl)-N-[4-(1,1,1,3,3,3-hexafluoro-2-hydroxypropan-2-yl)phenyl]-2-oxo-1,2-dihydropyridine-3-carboxamide]	95
